Source: PubChem BioAssay AID1745844 (Carcinogenic Potency Database (CPDB), 2022)

Test system: rodent lifetime carcinogenesis bioassay, tumor incidence TD50
Test: carcinogenic potency in animals, long-term in vivo studies, CPDB compilation (AID 1745844)
Conditions: by gavage

For `CC(C)=CCl`, the TD50 (mouse, strain B6C3F1, females, site: Harderian gland, lesion: papillary adenoma, dosed 102 weeks, study length 103 weeks) was 146 mg/kg/day, the TD50 (mouse, strain B6C3F1, females, site: any site (literature study), lesion: several types, types named in the paper, dosed 102 weeks, study length 103 weeks) was 14.6 mg/kg/day and the TD50 (mouse, strain B6C3F1, females, site: forestomach, lesion: adenosquamous carcinoma + carcinoma, NOS + squamous-cell carcinoma + squamous-cell papilloma, dosed 102 weeks, study length 103 weeks) was 14.3 mg/kg/day. The TD50 (mouse, strain B6C3F1, females, site: forestomach, lesion: adenosquamous carcinoma + carcinoma, NOS + squamous-cell carcinoma, dosed 102 weeks, study length 103 weeks) was 14.3 mg/kg/day, the TD50 (mouse, strain B6C3F1, females, site: forestomach, lesion: squamous-cell carcinoma + squamous-cell papilloma, dosed 102 weeks, study length 103 weeks) was 14.4 mg/kg/day and the TD50 (mouse, strain B6C3F1, females, site: forestomach, lesion: squamous-cell carcinoma, dosed 102 weeks, study length 103 weeks) was 14.4 mg/kg/day. For the same compound, the TD50 (mouse, strain B6C3F1, females, site: forestomach, lesion: squamous-cell papilloma, dosed 102 weeks, study length 103 weeks) was 373 mg/kg/day, the TD50 (mouse, strain B6C3F1, females, site: jejunum + liver + multiple organs + spleen, lesion: malignant lymphoma, lymphocytic type + malignant lymphoma, mixed type + malignant lymphoma, histiocytic type, dosed 102 weeks, study length 103 weeks) was 124 mg/kg/day and the TD50 (mouse, strain B6C3F1, females, site: liver + multiple organs + spleen, lesion: malignant lymphoma, mixed type, dosed 102 weeks, study length 103 weeks) was 229 mg/kg/day. For the same compound, the TD50 (mouse, strain B6C3F1, females, site: liver, lesion: hepatocellular adenoma + hepatocellular carcinoma + neoplastic nodule, dosed 102 weeks, study length 103 weeks) was 150 mg/kg/day, the TD50 (mouse, strain B6C3F1, females, site: liver, lesion: hepatocellular adenoma, dosed 102 weeks, study length 103 weeks) was 150 mg/kg/day and the TD50 (mouse, strain B6C3F1, females, site: lung, lesion: alveolar/bronchiolar adenoma + alveolar/bronchiolar carcinoma, dosed 102 weeks, study length 103 weeks) was 186 mg/kg/day. The TD50 (mouse, strain B6C3F1, females, site: lung, lesion: alveolar/bronchiolar adenoma, dosed 102 weeks, study length 103 weeks) was 235 mg/kg/day, the TD50 (mouse, strain B6C3F1, males, site: Harderian gland, lesion: papillary adenoma, dosed 102 weeks, study length 103 weeks) was 149 mg/kg/day and the TD50 (mouse, strain B6C3F1, males, site: any site (literature study), lesion: several types, types named in the paper, dosed 102 weeks, study length 103 weeks) was 13.9 mg/kg/day. The TD50 (mouse, strain B6C3F1, males, site: duodenum + lymph node + multiple organs + spleen, lesion: malignant lymphoma, mixed type + malignant lymphoma, NOS + granulocytic leukemia + malignant lymphoma, histiocytic type + malign, dosed 102 weeks, study length 103 weeks) was 148 mg/kg/day, the TD50 (mouse, strain B6C3F1, males, site: duodenum + lymph node + multiple organs + spleen, lesion: malignant lymphoma, mixed type + malignant lymphoma, NOS + malignant lymphoma, histiocytic type + malignant lymphoma, lymphocy, dosed 102 weeks, study length 103 weeks) was 154 mg/kg/day and the TD50 (mouse, strain B6C3F1, males, site: forestomach + preputial gland, lesion: squamous-cell carcinoma + squamous-cell papilloma, dosed 102 weeks, study length 103 weeks) was 15.2 mg/kg/day. It also gave a TD50 (mouse, strain B6C3F1, males, site: forestomach, lesion: squamous-cell carcinoma + squamous-cell papilloma, dosed 102 weeks, study length 103 weeks) of 15.5 mg/kg/day, a TD50 (mouse, strain B6C3F1, males, site: forestomach, lesion: squamous-cell carcinoma, dosed 102 weeks, study length 103 weeks) of 17.2 mg/kg/day and a TD50 (mouse, strain B6C3F1, males, site: forestomach, lesion: squamous-cell papilloma, dosed 102 weeks, study length 103 weeks) of 195 mg/kg/day. It also gave a TD50 (mouse, strain B6C3F1, males, site: liver + mesenteric lymph node + preputial gland + spleen, lesion: hemangioma + hemangiosarcoma, dosed 102 weeks, study length 103 weeks) of 221 mg/kg/day, a TD50 (mouse, strain B6C3F1, males, site: liver + spleen, lesion: hemangiosarcoma, dosed 102 weeks, study length 103 weeks) of 375 mg/kg/day and a TD50 (mouse, strain B6C3F1, males, site: liver, lesion: hepatocellular adenoma + hepatocellular carcinoma + neoplastic nodule, dosed 102 weeks, study length 103 weeks) of 48.8 mg/kg/day. The TD50 (mouse, strain B6C3F1, males, site: liver, lesion: hepatocellular adenoma + hepatocellular carcinoma, dosed 102 weeks, study length 103 weeks) was 48.8 mg/kg/day, the TD50 (mouse, strain B6C3F1, males, site: liver, lesion: hepatocellular adenoma, dosed 102 weeks, study length 103 weeks) was 87.1 mg/kg/day and the TD50 (mouse, strain B6C3F1, males, site: liver, lesion: hepatocellular carcinoma, dosed 102 weeks, study length 103 weeks) was 104 mg/kg/day. For the same compound, the TD50 (mouse, strain B6C3F1, males, site: lung, lesion: alveolar/bronchiolar adenoma + alveolar/bronchiolar carcinoma, dosed 102 weeks, study length 103 weeks) was 87.7 mg/kg/day, the TD50 (mouse, strain B6C3F1, males, site: lung, lesion: alveolar/bronchiolar adenoma, dosed 102 weeks, study length 103 weeks) was 117 mg/kg/day and the TD50 (mouse, strain B6C3F1, males, site: lung, lesion: alveolar/bronchiolar carcinoma, dosed 102 weeks, study length 103 weeks) was 199 mg/kg/day. The TD50 (mouse, strain B6C3F1, males, site: preputial gland, lesion: squamous-cell carcinoma, dosed 102 weeks, study length 103 weeks) was 90.7 mg/kg/day, the TD50 (rat, strain Fischer 344, females, site: any site (literature study), lesion: several types, types named in the paper, dosed 100 weeks, study length 104 weeks) was 11.9 mg/kg/day and the TD50 (rat, strain Fischer 344, females, site: esophagus + forestomach + gingiva + nasal cavity + oral mucosa + palate + tongue, lesion: squamous-cell carcinoma + squamous-cell papilloma + adenocarcinoma + adenoma, NOS + carcinoma, NOS, dosed 100 weeks, study length 104 weeks) was 25.3 mg/kg/day. The TD50 (rat, strain Fischer 344, females, site: esophagus, lesion: squamous-cell carcinoma, dosed 100 weeks, study length 104 weeks) was 250 mg/kg/day, the TD50 (rat, strain Fischer 344, females, site: forestomach, lesion: squamous-cell carcinoma + squamous-cell papilloma, dosed 100 weeks, study length 104 weeks) was 95.2 mg/kg/day and the TD50 (rat, strain Fischer 344, females, site: forestomach, lesion: squamous-cell carcinoma, dosed 100 weeks, study length 104 weeks) was 191 mg/kg/day. The TD50 (rat, strain Fischer 344, females, site: forestomach, lesion: squamous-cell papilloma, dosed 100 weeks, study length 104 weeks) was 209 mg/kg/day, the TD50 (rat, strain Fischer 344, females, site: gingiva + oral mucosa + palate + tongue, lesion: squamous-cell carcinoma + squamous-cell papilloma, dosed 100 weeks, study length 104 weeks) was 318 mg/kg/day and the TD50 (rat, strain Fischer 344, females, site: lung, lesion: alveolar/bronchiolar adenoma + alveolar/bronchiolar carcinoma, dosed 100 weeks, study length 104 weeks) was 218 mg/kg/day. It also gave a TD50 (rat, strain Fischer 344, females, site: mammary gland, lesion: adenocarcinoma + fibroadenoma, dosed 100 weeks, study length 104 weeks) of 36.7 mg/kg/day, a TD50 (rat, strain Fischer 344, females, site: mammary gland, lesion: fibroadenoma, dosed 100 weeks, study length 104 weeks) of 38.3 mg/kg/day and a TD50 (rat, strain Fischer 344, females, site: multiple organs, lesion: lymphocytic leukemia + mononuclear-cell leukemia, dosed 100 weeks, study length 104 weeks) of 170 mg/kg/day. The TD50 (rat, strain Fischer 344, females, site: multiple organs, lesion: mononuclear-cell leukemia, dosed 100 weeks, study length 104 weeks) was 202 mg/kg/day, the TD50 (rat, strain Fischer 344, females, site: nasal cavity, lesion: adenocarcinoma + adenoma, NOS + carcinoma, NOS + squamous-cell carcinoma, dosed 100 weeks, study length 104 weeks) was 34.3 mg/kg/day and the TD50 (rat, strain Fischer 344, females, site: nasal cavity, lesion: adenocarcinoma + adenoma, NOS, dosed 100 weeks, study length 104 weeks) was 143 mg/kg/day. It also gave a TD50 (rat, strain Fischer 344, females, site: nasal cavity, lesion: adenocarcinoma + carcinoma, NOS + squamous-cell carcinoma, dosed 100 weeks, study length 104 weeks) of 35.2 mg/kg/day, a TD50 (rat, strain Fischer 344, females, site: nasal cavity, lesion: adenocarcinoma, dosed 100 weeks, study length 104 weeks) of 159 mg/kg/day and a TD50 (rat, strain Fischer 344, females, site: nasal cavity, lesion: carcinoma, NOS + squamous-cell carcinoma, dosed 100 weeks, study length 104 weeks) of 46.8 mg/kg/day. For the same compound, the TD50 (rat, strain Fischer 344, females, site: nasal cavity, lesion: carcinoma, NOS, dosed 100 weeks, study length 104 weeks) was 52.7 mg/kg/day, the TD50 (rat, strain Fischer 344, females, site: oral mucosa + palate, lesion: squamous-cell papilloma, dosed 100 weeks, study length 104 weeks) was 1010 mg/kg/day and the TD50 (rat, strain Fischer 344, females, site: oral mucosa, lesion: squamous-cell papilloma, dosed 100 weeks, study length 104 weeks) was 1220 mg/kg/day. The TD50 (rat, strain Fischer 344, females, site: pituitary gland, anterior, lesion: adenoma, NOS + chromophobe adenoma + chromophobe carcinoma, dosed 100 weeks, study length 104 weeks) was 68 mg/kg/day, the TD50 (rat, strain Fischer 344, females, site: pituitary gland, anterior, lesion: adenoma, NOS + chromophobe adenoma, dosed 100 weeks, study length 104 weeks) was 101 mg/kg/day and the TD50 (rat, strain Fischer 344, females, site: pituitary gland, anterior, lesion: chromophobe adenoma + chromophobe carcinoma, dosed 100 weeks, study length 104 weeks) was 71.7 mg/kg/day. For the same compound, the TD50 (rat, strain Fischer 344, females, site: pituitary gland, anterior, lesion: chromophobe adenoma, dosed 100 weeks, study length 104 weeks) was 109 mg/kg/day, the TD50 (rat, strain Fischer 344, females, site: pituitary gland, anterior, lesion: chromophobe carcinoma, dosed 100 weeks, study length 104 weeks) was 222 mg/kg/day and the TD50 (rat, strain Fischer 344, females, site: thyroid gland, lesion: c-cell adenoma, dosed 100 weeks, study length 104 weeks) was 225 mg/kg/day. The TD50 (rat, strain Fischer 344, females, site: thyroid gland, lesion: follicular-cell adenoma + follicular-cell carcinoma, dosed 100 weeks, study length 104 weeks) was 131 mg/kg/day, the TD50 (rat, strain Fischer 344, females, site: thyroid gland, lesion: follicular-cell carcinoma, dosed 100 weeks, study length 104 weeks) was 136 mg/kg/day and the TD50 (rat, strain Fischer 344, females, site: uterus, lesion: endometrial stromal polyp + endometrial stromal sarcoma, dosed 100 weeks, study length 104 weeks) was 84.9 mg/kg/day. The TD50 (rat, strain Fischer 344, females, site: uterus, lesion: endometrial stromal polyp, dosed 100 weeks, study length 104 weeks) was 91.9 mg/kg/day, the TD50 (rat, strain Fischer 344, males, site: adrenal gland + adrenal medulla, lesion: pheochromocytoma, malignant + pheochromocytoma, dosed 94 weeks, study length 104 weeks) was 86.7 mg/kg/day and the TD50 (rat, strain Fischer 344, males, site: any site (literature study), lesion: several types, types named in the paper, dosed 94 weeks, study length 104 weeks) was 10.2 mg/kg/day. It also gave a TD50 (rat, strain Fischer 344, males, site: esophagus + forestomach + lip + nasal cavity + palate + tongue, lesion: squamous-cell carcinoma + squamous-cell papilloma + adenocarcinoma + carcinoma, NOS, dosed 94 weeks, study length 104 weeks) of 17.5 mg/kg/day, a TD50 (rat, strain Fischer 344, males, site: esophagus, lesion: squamous-cell carcinoma + squamous-cell papilloma, dosed 94 weeks, study length 104 weeks) of 81.6 mg/kg/day and a TD50 (rat, strain Fischer 344, males, site: esophagus, lesion: squamous-cell carcinoma, dosed 94 weeks, study length 104 weeks) of 143 mg/kg/day. For the same compound, the TD50 (rat, strain Fischer 344, males, site: esophagus, lesion: squamous-cell papilloma, dosed 94 weeks, study length 104 weeks) was 218 mg/kg/day, the TD50 (rat, strain Fischer 344, males, site: forestomach, lesion: squamous-cell carcinoma + squamous-cell papilloma, dosed 94 weeks, study length 104 weeks) was 41.6 mg/kg/day and the TD50 (rat, strain Fischer 344, males, site: forestomach, lesion: squamous-cell carcinoma, dosed 94 weeks, study length 104 weeks) was 135 mg/kg/day. It also gave a TD50 (rat, strain Fischer 344, males, site: forestomach, lesion: squamous-cell papilloma, dosed 94 weeks, study length 104 weeks) of 67.1 mg/kg/day, a TD50 (rat, strain Fischer 344, males, site: lip + palate + tongue, lesion: squamous-cell carcinoma + squamous-cell papilloma, dosed 94 weeks, study length 104 weeks) of 163 mg/kg/day and a TD50 (rat, strain Fischer 344, males, site: lip + palate + tongue, lesion: squamous-cell carcinoma, dosed 94 weeks, study length 104 weeks) of 178 mg/kg/day. It also gave a TD50 (rat, strain Fischer 344, males, site: liver, lesion: hepatocellular adenoma + hepatocellular carcinoma + neoplastic nodule, dosed 94 weeks, study length 104 weeks) of 1030 mg/kg/day, a TD50 (rat, strain Fischer 344, males, site: multiple organs, lesion: mononuclear-cell leukemia, dosed 94 weeks, study length 104 weeks) of 128 mg/kg/day and a TD50 (rat, strain Fischer 344, males, site: nasal cavity, lesion: adenocarcinoma + carcinoma, NOS + squamous-cell carcinoma, dosed 94 weeks, study length 104 weeks) of 29.7 mg/kg/day. For the same compound, the TD50 (rat, strain Fischer 344, males, site: nasal cavity, lesion: adenocarcinoma, NOS, dosed 94 weeks, study length 104 weeks) was 70.1 mg/kg/day, the TD50 (rat, strain Fischer 344, males, site: nasal cavity, lesion: carcinoma, NOS + squamous-cell carcinoma, dosed 94 weeks, study length 104 weeks) was 52.1 mg/kg/day and the TD50 (rat, strain Fischer 344, males, site: nasal cavity, lesion: carcinoma, NOS, dosed 94 weeks, study length 104 weeks) was 63.4 mg/kg/day. It also gave a TD50 (rat, strain Fischer 344, males, site: nasal cavity, lesion: squamous-cell carcinoma, dosed 94 weeks, study length 104 weeks) of 297 mg/kg/day, a TD50 (rat, strain Fischer 344, males, site: testis, lesion: interstitial-cell tumor, dosed 94 weeks, study length 104 weeks) of 13.9 mg/kg/day and a TD50 (rat, strain Fischer 344, males, site: tongue, lesion: squamous-cell carcinoma + squamous-cell papilloma, dosed 94 weeks, study length 104 weeks) of 415 mg/kg/day. The TD50 (rat, strain Fischer 344, males, site: tongue, lesion: squamous-cell carcinoma, dosed 94 weeks, study length 104 weeks) was 469 mg/kg/day.
